Data on 25 molecules can be found in paper PMC8123576 (International Journal of Molecular Sciences, 2021).

Like-named read-outs stand apart in the source and are kept apart here.

For data set [1], the system named is A. cepa root cells. The settings on record: for DNA damage as chromosomal aberrations in Allium root cells: 10.0 µM. The protocol: To detect micronuclei and chromosomal aberrations six equal-sized pre-germinated young bulbs per sample were exposed for 24 h to sample dilutions. The bulbs dedicated to the micronuclei test underwent an additional treatment in the saline solution for 44 h of recovery time to cover two rounds of mitosis so that damage induced in chromosomes during mitosis to be visible as micronuclei in interphase cells. Then all the roots were fixed in acetic acid and ethanol (1:3) for 24 h and lastly stored in 70% ethanol. The negative control was DMSO in Rank’s solution (the dose of DMSO corresponding to volume of samples) and positive control was maleic hydrazide (10^−2 M, 6 h exposure). […] All experiments were performed in duplicate.

Data set [2] has as its system A. flavus. The data set can be described thus: microbe, parasite or virus in culture. The class given is cell-based, Aspergillus flavus.
In data set [3] the test system is S. typhimurium TA98 and TA100 strains. The data set can be described thus: Ames test, overall mutagenicity verdict in bacteria. The settings on record: TA98 and TA100, -S9 and +S9.
Data set [4] deals with A. cepa. Put plainly: A. cepa toxicity test (root length). The settings on record: in vivo. It counts as in vivo, Allium cepa. The procedure:
A. cepa toxicity test: Twelve equal-sized young onion bulbs were exposed for 96 h in the dark to different concentrations of compounds dissolved in DMSO, changing the sample solution every day. […] Root macroscopic parameters such as turgescence, consistency, change in color and root tip shape, were used as toxicity indexes.

The subject of data set [5] is aflatoxin accumulation by A. flavus. The data set can be described thus: microbe, parasite or virus in culture. It counts as cell-based, Aspergillus flavus.
Data set [6] relates to Hs27 cells. The data set can be described thus: Cytotoxicity assay (CellTiter 96 AQueous One) on Hs27. It counts as cell-based, human. The settings on record: for viability: Hs27, 24 h, dose 0 = 100.00, read-out: Growth inhibition data; for GI50: Hs27 cells, 24 h treatment. The procedure:
The best antifungal and/or antiaflatoxigenic compounds were tested to determine their cytotoxic activity against human normal cell lines deriving from lung (HFL1, ATCC and CCL-153), skin (Hs27, ATCC, CRL1634) and colon (Crl1790, ATCC, CCD 841 CoN) and a cell line deriving from a hematological tumor (U937, ATCC and CRL-3253). These different cell lines have been chosen to simulate the different human exposition routes to pesticide. Cell culture conditions have been previously reported. Compound cytotoxicity was determined using CellTiter 96® AQueous One Solution Cell Proliferation Assay (Promega Corporation, Madison, WI, USA). The very detailed protocol was described by Bartoli et al.. In brief, cells were seeded in a 96-well plate at a density of 5000 cells/well and after 24 h cells were treated with different concentrations of the compounds (0.5–1–5–10–50–100 µM). After the treatment period (24 h), the CellTiter Reagent was added to each well (20 µL/well) and the plate incubated for 4 h at 37 °C. The plate was then read at 485 nm in a multiwell plate reader (TECAN SpectraFluor Plus, Männedorf, Switzerland).

As to `O=Cc1ccc2c(c1)C(=O)c1ccccc1C2=O` [2‐Formylanthraquinone], the “DNA damage as chromosomal aberrations in Allium root cells” value (from here on “DNA damage as chromosomal aberrations”) in data set [1] is “induced DNA damage as chromosomal aberrations”. Further, the inhibition at 100 µM in data set [2] (Aspergillus flavus, 100 µM, read-out: G.I. (%) (A. flavus growth inhibition)) is 58%.
Turning to `NC(=S)NNC(=O)c1ccc2c(c1)C(=O)c1ccccc1C2=O` [Anthraquinone‐2‐carbonyl‐1‐thiosemicarbazide], the “mutagenicity in bacteria” value in data set [3] is “slight mutagenic activity”. Besides, the “G.I. (%) (A. flavus growth inhibition)” value in data set [2] (100 µM) is 58,0%.
`O=C(O)c1ccc2c(c1)C(=O)c1ccccc1C2=O` [Anthraquinone‐2‐carboxylic acid]: the “effect on A. cepa root length” value in data set [4] is reported as “reduction of A. cepa root length”. For the same molecule, in data set [1], the “DNA damage as chromosomal aberrations” value is “induced DNA damage as chromosomal aberrations”. The “A.I. (%) (aflatoxin accumulation inhibition)” value in data set [5] (50 µM) is reported as 56,0%; in data set [5] (100 µM), 80,0%.
As for `CN(N=CC=Cc1ccccc1)C(N)=S` [Cinnamaldehyde 2‐methyl thiosemicarbazone], the “DNA damage as chromosomal aberrations” value in data set [1] is listed as “induced DNA damage as chromosomal aberrations”. In addition, the “A.I. (%) (aflatoxin accumulation inhibition)” value in data set [5] (100 µM) is recorded as 64,0%.
As for `CN(C)C(=S)NN=CC=Cc1ccccc1` [Cinnamaldehyde 4,4‐dimethyl thiosemicarbazone], the “effect on A. cepa root length” value in data set [4] is reported as “reduction of A. cepa root length”. Also, the “mutagenicity in bacteria” value in data set [3] is recorded as “slight mutagenic activity”. Besides, the “A.I. (%) (aflatoxin accumulation inhibition)” value in data set [5] (50 µM) and in data set [5] (100 µM) was 100% throughout.
As for `CCCCC(=NNC(N)=S)c1ccccc1` [Valerophenone thiosemicarbazone], the “DNA damage as chromosomal aberrations” value in data set [1] is recorded as “induced DNA damage as chromosomal aberrations”. Besides, the “G.I. (%) (A. flavus growth inhibition)” value in data set [2] (100 µM) is on record as 54,0%. Besides, in data set [5] (100 µM), the “A.I. (%) (aflatoxin accumulation inhibition)” value is given as 55,0%.
Consider `CN(C)C(=S)NN=Cc1ccccc1` [benzaldehyde 4,4'‐dimethyl thiosemicarbazone], for which, in data set [1] (respect to the control), the “mitotic index / interference with cell division” value is “lower mitotic index”. Besides, the “mutagenicity in bacteria” value in data set [3] was “without showing any mutagenic effect”. Also, the “A.I. (%) (aflatoxin accumulation inhibition)” value was 76,0% in data set [5] (50 µM) and 90,0% in data set [5] (100 µM).
Turning to “Bis(2-acetylfuranthiosemicarbazonato) copper(II) [2-acfurTS-Cu]”, the viability in data set [6] (0.5 µM) came to 92.8 ± 5.53%; in data set [6] (1 µM) it was 99.4 ± 4.63%; in data set [6] (5 µM) it was 98.9 ± 12.1%; in data set [6] (10 µM), 100 ± 5.93%; in data set [6] (50 µM), 36.9 ± 6.49%; in data set [6] (100 µM), 35.6 ± 1.89%. It took 39 µM to inhibit growth in data set [6] by half (GI50). The “G.I. (%) (A. flavus growth inhibition)” value in data set [2] (100 µM) is 63,4%. Also, in data set [2] (10 to 100 µM, complexes compared with their ligand), the “impact on fungal growth” value is “higher fungistatic activity”. Further, the “A.I. (%) (aflatoxin accumulation inhibition)” value in data set [5] (100 µM) is recorded as 65,7%.
“Bis(2-acetylfuranthiosemicarbazonato) zinc(II) [2-acfurTS-Zn]”: the viability in data set [6] (0.5 µM) was 100 ± 7.72%; in data set [6] (1 µM) it was 100 ± 7.88%; in data set [6] (5 µM), 100 ± 7.7%; in data set [6] (10 µM), 100 ± 12.7%; in data set [6] (50 µM), 16.5 ± 0.62%; in data set [6] (100 µM), 15.2 ± 0.73%. In data set [6], the GI50 turned out to be 30.5 µM. Further, the “impact on fungal growth compared with the ligand” value in data set [2] (100 µM) is given as “slightly less effective”.
On to “Bis(2-acetylthiophenethiosemicarbazonato) copper(II) [2-actpTS-Cu]”, for which the viability was 90.7 ± 4.69% in data set [6] (0.5 µM); 87.1 ± 3.53% in data set [6] (1 µM); 72.1 ± 3.35% in data set [6] (5 µM); 16.2 ± 0.84% in data set [6] (10 µM); 14.6 ± 0.85% in data set [6] (50 µM); 15 ± 0.2% in data set [6] (100 µM). The GI50 in data set [6] was determined as 6.2 µM. Further, the results for the “A.I. (%) (aflatoxin accumulation inhibition)” value in data set [5] (50 µM) and in data set [5] (100 µM) were 56,5% and 88,6%, respectively.
Regarding “Bis(2-acetylthiophenethiosemicarbazonato) zinc(II) [2-actpTS-Zn]”, the viability in data set [6] (0.5 µM) was found to be 91.6 ± 7.33%; in data set [6] (1 µM) it was 94.3 ± 2.25%; in data set [6] (5 µM), 81.9 ± 5.34%; in data set [6] (10 µM), 60.1 ± 1.57%; in data set [6] (50 µM) it was 15.5 ± 0.56%; in data set [6] (100 µM), 16 ± 1.39%. For the same molecule, the concentration for 50% growth inhibition (GI50) in data set [6] came out at 15.4 µM. Besides, the “A.I. (%) (aflatoxin accumulation inhibition)” value in data set [5] (50 µM) was 60,4%; in data set [5] (100 µM), 85,4%.
Turning to Cu(II) apocynin bisthiosemicarbazonate, the “G.I. (%) (A. flavus growth inhibition)” value in data set [2] (50 µM) is 61,0%; in data set [2] (100 µM) it was 72,0%. Moreover, the “A.I. (%) (aflatoxin accumulation inhibition)” value in data set [5] (50 µM) was 52,0%; in data set [5] (100 µM) it was 72,0%.
On to Cu(II) bisvanillin thiosemicarbazonate, for which the “G.I. (%) (A. flavus growth inhibition)” value in data set [2] (100 µM) was 65,5%. In addition, the “A.I. (%) (aflatoxin accumulation inhibition)” value was 53,0% in data set [5] (50 µM) and 77,0% in data set [5] (100 µM).
As to Cu(II) fenchone bisthiosemicarbazonate, in data set [2] (100 µM), the “G.I. (%) (A. flavus growth inhibition)” value is given as 57,0%. The “A.I. (%) (aflatoxin accumulation inhibition)” value in data set [5] (50 µM) was 62,0%; in data set [5] (100 µM), 84,0%.
On the same counts, the results for Cu(II) jasmone bisthiosemicarbazonate are 74,3%, 78,0% and 97,0%.
Regarding Cu(II) nonanal bisthiosemicarbazonate, in data set [2] (100 µM), the “G.I. (%) (A. flavus growth inhibition)” value was 84,1%. Also, the “A.I. (%) (aflatoxin accumulation inhibition)” value is reported as 90,0% in data set [5] (50 µM) and 100% in data set [5] (100 µM).
For the molecule “Cu(II) syringaldehyde bisthiosemicarbazonate”, the “G.I. (%) (A. flavus growth inhibition)” value in data set [2] (100 µM) is reported as 61,0%. In addition, in data set [5] (100 µM), the “A.I. (%) (aflatoxin accumulation inhibition)” value was 61,0%.
For the molecule Cu(II)undecanal bisthiosemicarbazonate, the “G.I. (%) (A. flavus growth inhibition)” value is on record as 60,4% in data set [2] (50 µM) and 94,0% in data set [2] (100 µM). Further, the “A.I. (%) (aflatoxin accumulation inhibition)” value in data set [5] (50 µM) was 84,8%; in data set [5] (100 µM), 96,0%.
As to “Mn(II) 2‐acetylthiophene bisthiosemicarbazonate”, the “G.I. (%) (A. flavus growth inhibition)” value in data set [2] (100 µM) was 53,0%. For the same molecule, the “A.I. (%) (aflatoxin accumulation inhibition)” value in data set [5] (50 µM) is on record as 61,0%; in data set [5] (100 µM), 92,0%.
Take “Ni(II) Cinnamaldehyde bisthiosemicarbazonate”: the “G.I. (%) (A. flavus growth inhibition)” value in data set [2] (50 µM) is given as 87,9%; in data set [2] (100 µM), 100%. For the same molecule, the “A.I. (%) (aflatoxin accumulation inhibition)” value is 95,0% in data set [5] (50 µM) and 100% in data set [5] (100 µM).
For the molecule “Ni(II) Cuminaldehyde bisthiosemicarbazonate”, the “G.I. (%) (A. flavus growth inhibition)” value in data set [2] (50 µM) is on record as 84,0%; in data set [2] (100 µM), 90,0%. The results for the “A.I. (%) (aflatoxin accumulation inhibition)” value in data set [5] (50 µM) and in data set [5] (100 µM) were 91,5% and 96,0%, respectively.
In the case of “Ni(II) citronellal bisthiosemicarbazonate”, the “G.I. (%) (A. flavus growth inhibition)” value in data set [2] (100 µM) was 58,9%. Further, the “A.I. (%) (aflatoxin accumulation inhibition)” value in data set [5] (100 µM) was 82,1%.
Consider Plumbagin thiosemicarbazone, for which the “G.I. (%) (A. flavus growth inhibition)” value in data set [2] (100 µM) is 61,9%. The “A.I. (%) (aflatoxin accumulation inhibition)” value in data set [5] (100 µM) was 83,0%.
In the case of “Zn(II) Cinnamaldehyde bisthiosemicarbazonate”, the results for the “G.I. (%) (A. flavus growth inhibition)” value in data set [2] (50 µM) and in data set [2] (100 µM) were 56,0% and 76,0%, respectively. In addition, the “A.I. (%) (aflatoxin accumulation inhibition)” value is on record as 99,0% in data set [5] (50 µM) and 100% in data set [5] (100 µM).
On the same counts, the results for “Zn(II) Cuminaldehyde bisthiosemicarbazonate” are 56,0%, 60,3%, 97,1% and 100%.

What is called inhibition is the change of the read-out against control, counted positive when it falls. Broadly, the GI50 is the concentration giving 50% growth inhibition. High values mean less potent growth inhibition, low ones more potent growth inhibition.
